Residues, ends and D or L forms follow the SMILES beside them.
System: drug-resistant Mycobacterium tuberculosis
Details: 5 micrograms per ml

Question: For `CC(C)[C@H](NC(=O)[C@H](CC(=O)O)NC(=O)[C@H](CCCCN)NC(=O)[C@@H](N)CCCN=C(N)N)C(=O)N[C@@H](Cc1ccc(O)cc1)C(=O)O` [Thymopentin, Arg-Lys-Asp-Val-Tyr-OH] (H-RKDVY-OH), which “% inhibition” value is on record?
Answer: Its value is 0.0%.
